# Data from patent publication US9187435B2, “Bridged Spiro[2.4]heptane ester derivatives” (Actelion Pharmaceuticals Ltd., priority 2010, dated 2015).
# Structures can show the parent of a compound that is named as a salt.
# Biological target: T1, human ALX receptor (Homo sapiens, UniProt P25090)
# T1 construct: expressed in transfected cells; host or cells: HEK293 (HEK293-hALXR-Gα16)
# T1 sequence (P25090 1-351): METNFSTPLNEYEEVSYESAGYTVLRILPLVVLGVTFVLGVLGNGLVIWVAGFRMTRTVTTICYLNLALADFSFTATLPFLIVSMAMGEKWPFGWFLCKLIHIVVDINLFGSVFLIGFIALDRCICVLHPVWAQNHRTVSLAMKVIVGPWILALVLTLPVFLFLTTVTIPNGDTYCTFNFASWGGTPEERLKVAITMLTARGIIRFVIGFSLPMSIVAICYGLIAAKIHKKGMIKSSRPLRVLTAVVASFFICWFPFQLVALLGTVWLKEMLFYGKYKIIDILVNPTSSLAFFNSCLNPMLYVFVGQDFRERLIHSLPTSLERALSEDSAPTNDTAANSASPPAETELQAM
# Experiment: Intracellular calcium measurements (FLIPR) in HEK293-hALXR-Gα16 cells, agonistic activity
# Type: cell-based
# Settings: values normalized to WKYMVm 10 nM
# Procedure: The ALX receptor and FPRL2 agonistic activities of the compounds of formula (I) are determined in accordance with the following experimental method.
# Intracellular Calcium Measurements:
# Cells expressing recombinant human ALX receptor and the G-protein Gα16 (HEK293-hALXR-Gα16) were grown to 80% confluency in Growing Medium (GM). Cells were detached from culture dishes with a cell dissociation buffer (Invitrogen, 13151-014), and collected by centrifugation at 1,000 rpm at rt for 5 min in Assay Buffer (AB) (equal parts of Hank's BSS (Gibco, 14065-049) and DMEM without Phenol Red (Gibco, 11880-028)). After 60 min incubation at 37° C. under 5% CO2 in AB supplemented with 1 μM Fluo-4 (AM) (Invitrogen, F14202), and 20 mM HEPES (Gibco, 15630-056), the cells were washed and resuspended in AB. They were then seeded onto 384-well FLIPR assay plates (Greiner, 781091) at 50,000 cells in 70 μl per well and sedimented by centrifugation at 1,000 rpm for 1 min. Stock solutions of test compounds were made up at a concentration of 10 mM in DMSO, and serially diluted in AB to concentrations required for activation dose response curves. WKYMVm (Phoenix Peptides) was used as a reference agonist. FLIPR384 or FLIPR Tetra instruments (Molecular Devices) were operated according to the manufacturer's standard instructions, adding 4 μl of test compound dissolved at 10 mM in DMSO and diluted prior to the experiment in assay buffer to obtain the desired final concentration. Changes in fluorescence were monitored before and after the addition of test compounds at lex=488 nm and lem=540 nm. Emission peak values above base level after compounds addition were exported after base line subtraction. Values were normalized to high-level control (WKYMVm compound, 10 nM final concentration) after subtraction of the base line value (AB addition).
row,Structure (SMILES),EC50 [nM]
1,"Cc1cc(CNC(=O)[C@H]2[C@H](C(=O)OCC3CCNCC3)[C@H]3CC[C@@H]2C32CC2)no1 [Example 3, (1S,2R,3R,4R)-[Piperidin-4-ylmethyl 2-(((5-methylisoxazol-3-yl)methyl)carbamoyl)spiro[bicyclo[2.2.1]heptane-7,1′-cyclopropane]-3-carboxylate]hydrochloride]",22.7
2,"COCCOC(=O)[C@H]1[C@H](C(=O)Nc2ccc(Br)nc2)[C@@H]2CC[C@H]1C21CC1 [Example 7, (1S,2R,3R,4R)-[2-Methoxyethyl 2-((6-bromopyridin-3-yl)carbamoyl)spiro[bicyclo[2.2.1]heptane-7,1′-cyclopropane]-3-carboxylate]]",303
3,"O=C(OCC1CCCNC1)[C@H]1[C@H](C(=O)Nc2ccc(Br)nc2)[C@@H]2CC[C@H]1C21CC1 (stereo partly drawn) [Example 12, (1S,2R,3R,4R)-[Piperidin-3-ylmethyl 2-((6-bromopyridin-3-yl)carbamoyl)spiro[bicyclo[2.2.1]heptane-7,1′-cyclopropane]-3-carboxylate]hydrochloride]",15.5
4,"Cc1cc(CNC(=O)[C@H]2[C@H](C(=O)OCC3CCCNC3)[C@H]3CC[C@@H]2C32CC2)no1 (stereo partly drawn) [Example 18, (1S,2R,3R,4R)-[Piperidin-3-ylmethyl 2-(((5-methylisoxazol-3-yl)methyl)carbamoyl)spiro[bicyclo[2.2.1]heptane-7,1′-cyclopropane]-3-carboxylate]hydrochloride]",87.7
5,"O=C(OCCOCCN1CCCC1)[C@H]1[C@H](C(=O)NCc2ccc(Br)cc2F)[C@@H]2CC[C@H]1C21CC1 [Example 32, (1S,2R,3R,4R)-[2-(2-(Pyrrolidin-1-yl)ethoxy)ethyl 2-((4-bromo-2-fluorobenzyl)carbamoyl)spiro[bicyclo[2.2.1]heptane-7,1′-cyclopropane]-3-carboxylate]]",226
6,"Cc1cc(CNC(=O)[C@H]2[C@H](C(=O)OC3CCCNC3)[C@H]3CC[C@@H]2C32CC2)no1 (stereo partly drawn) [Example 16, (1S,2R,3R,4R)-[Piperidin-3-yl 2-(((5-methylisoxazol-3-yl)methyl)carbamoyl)spiro[bicyclo[2.2.1]heptane-7,1′-cyclopropane]-3-carboxylate]hydrochloride]",53.7

# Continued, values first:
row,EC50 [nM],Structure (SMILES)
1,1.8,"O=C(OCC[C@H]1CCNC[C@H]1F)[C@H]1[C@H](C(=O)Nc2ccc(Br)nc2)[C@@H]2CC[C@H]1C21CC1 (relative stereo) [Example 38, (1S,2R,3R,4R)-[2-(cis-3-Fluoro-piperidin-4-yl)ethyl 2-((6-bromopyridin-3-yl)carbamoyl)spiro[bicyclo[2.2.1]heptane-7,1′-cyclopropane]-3-carboxylate]]"
2,28.2,"O=C(OC1CCNCC1(F)F)[C@H]1[C@H](C(=O)Nc2ccc(Br)nc2)[C@@H]2CC[C@H]1C21CC1 (stereo partly drawn) [Example 56, (1S,2R,3R,4R)-[(3,3-Difluoro-piperidin-4-yl) 2-((6-bromopyridin-3-yl)carbamoyl)spiro[bicyclo[2.2.1]heptane-7,1′-cyclopropane]-3-carboxylate]]"
3,21.6,"Cc1cc(CNC(=O)[C@H]2[C@H](C(=O)OCCOCCN3CC[C@H](F)C3)[C@H]3CC[C@@H]2C32CC2)no1 [Example 34, (1S,2R,3R,4R)-[(S)-2-(2-(3-Fluoropyrrolidin-1-yl)ethoxy)ethyl 2-(((5-methylisoxazol-3-yl)methyl)carbamoyl)spiro[bicyclo[2.2.1]heptane-7,1′-cyclopropane]-3-carboxylate]]"
4,5.2,"O=C(OCC1CCNCC1)[C@H]1[C@H](C(=O)Nc2ccc(Br)nc2)[C@@H]2CC[C@H]1C21CC1 [Example 41, (1S,2R,3R,4R)-[(Piperidin-4-yl)methyl 2-((6-bromopyridin-3-yl)carbamoyl)spiro[bicyclo[2.2.1]heptane-7,1′-cyclopropane]-3-carboxylate]hydrochloride]"
5,11.3,"Cc1cc(CNC(=O)[C@H]2[C@H](C(=O)OCC3(F)CCNCC3)[C@H]3CC[C@@H]2C32CC2)on1 [Example 51, (1S,2R,3R,4R)-[(4-Fluoro-piperidin-4-yl)methyl 2-(((3-methylisoxazol-5-yl)methyl)carbamoyl)spiro[bicyclo[2.2.1]heptane-7,1′-cyclopropane]-3-carboxylate]]"
